PubChem BioAssay AID1963849 (Molecular Pharmacology Branch, DTP, NCI, 2024)

Tested on: 299254-011-R-J1-PDC complex spheroid viability
Test: Anticancer human tumor 299254-011-R-J1-PDC patient-derived melanoma cell line growth inhibition [POLQ]
Conditions: for IC50: curve of first compound; for viability, T/C: stronger effect = lower value
Summary of the method: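 Patient-derived tumour cells were co-cultured with HUVEC and mesenchymal stem cells as multicellular spheroids at 37 °C. They were treated with POLQ inhibitors (novobiocin, ART-558, RP6685) alone or combined with other agents. Top concentrations were at or near clinical Cmax (otherwise 10 microM; SN-38 at 1 microM), decreasing in half-log steps.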

[1] = second compound 0.0316 µM, first compound 0.0316 µM
[2] = second compound 0.0316 µM, first compound 0.1 µM
[3] = second compound 0.0316 µM, first compound 0.316 µM
[4] = second compound 0.0316 µM, first compound 1 µM
[5] = second compound 0.0316 µM, first compound 3.16 µM
[6] = second compound 0.0316 µM, first compound 10 µM
[7] = second compound 0.1 µM, first compound 0.0316 µM
[8] = second compound 0.1 µM, first compound 0.1 µM
[9] = second compound 0.1 µM, first compound 0.316 µM
[10] = second compound 0.1 µM, first compound 1 µM
[11] = second compound 0.1 µM, first compound 3.16 µM
[12] = second compound 0.1 µM, first compound 10 µM
[13] = second compound 0.316 µM, first compound 0.0316 µM
[14] = second compound 0.316 µM, first compound 0.1 µM
[15] = second compound 0.316 µM, first compound 0.316 µM
[16] = second compound 0.316 µM, first compound 1 µM
[17] = second compound 0.316 µM, first compound 3.16 µM
[18] = second compound 0.316 µM, first compound 10 µM
[19] = second compound 1 µM, first compound 0.0316 µM
[20] = second compound 1 µM, first compound 0.1 µM
[21] = second compound 1 µM, first compound 0.316 µM
[22] = second compound 1 µM, first compound 1 µM
[23] = second compound 1 µM, first compound 3.16 µM
[24] = second compound 1 µM, first compound 10 µM
[25] = second compound 3.16 µM, first compound 0.0316 µM
[26] = second compound 3.16 µM, first compound 0.1 µM
[27] = second compound 3.16 µM, first compound 0.316 µM
[28] = second compound 3.16 µM, first compound 1 µM
[29] = second compound 3.16 µM, first compound 3.16 µM
[30] = second compound 3.16 µM, first compound 10 µM
[31] = second compound 10 µM, first compound 0.0316 µM
[32] = second compound 10 µM, first compound 0.1 µM
[33] = second compound 10 µM, first compound 0.316 µM
[34] = second compound 10 µM, first compound 1 µM
[35] = second compound 10 µM, first compound 3.16 µM
[36] = second compound 10 µM, first compound 10 µM
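Further: spheroids exposed to drugs for one week before measurement.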
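Wherever viability, T/C is given: percent viability relative to DMSO vehicle control taken as 100%.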

SMILES: CC1COCCN1c1cc(C2(O)CC3CCC(C2)O3)c2cnn(-c3ccn[nH]3)c2n1 (stereo unspecified) + Nc1ccc(C#CCN(C(=O)Cc2ncc(C(F)(F)F)cc2C(F)(F)F)c2ccc(F)cc2)nn1
- IC50 (second compound 0.0316 µM): 168 nM
- IC50 (second compound 0.1 µM): 173 nM
- IC50 (second compound 0.316 µM): 130 nM
- IC50 (second compound 1 µM): 138 nM
- IC50 (second compound 3.16 µM): 98.2 nM
- IC50 (second compound 10 µM): 97.1 nM
- viability, T/C [1]: 90.4%
- viability, T/C [2]: 61.6%
- viability, T/C [3]: 34.3%
- viability, T/C [4]: 27.1%
- viability, T/C [5]: 15.7%
- viability, T/C [6]: 11.1%
- viability, T/C [7]: 87.4%
- viability, T/C [8]: 55.3%
- viability, T/C [9]: 42.5%
- viability, T/C [10]: 29.8%
- viability, T/C [11]: 15.6%
- viability, T/C [12]: 13.2%
- viability, T/C [13]: 80.6%
- viability, T/C [14]: 49.6%
- viability, T/C [15]: 39.5%
- viability, T/C [16]: 26.6%
- viability, T/C [17]: 18.5%
- viability, T/C [18]: 11.5%
- viability, T/C [19]: 91%
- viability, T/C [20]: 55.7%
- viability, T/C [21]: 35.2%
- viability, T/C [22]: 21.5%
- viability, T/C [23]: 16.5%
- viability, T/C [24]: 12.9%
- viability, T/C [25]: 79.1%
- viability, T/C [26]: 49.5%
- viability, T/C [27]: 31.8%
- viability, T/C [28]: 23.1%
- viability, T/C [29]: 18.9%
- viability, T/C [30]: 14%
- viability, T/C [31]: 73.8%
- viability, T/C [32]: 48%
- viability, T/C [33]: 35.8%
- viability, T/C [34]: 22.1%
- viability, T/C [35]: 18.4%
- viability, T/C [36]: 15.5%

SMILES: C=CCn1c(=O)c2cnc(Nc3ccc(N4CCN(C)CC4)cc3)nc2n1-c1cccc(C(C)(C)O)n1 + COC1C(OC(N)=O)C(O)C(Oc2ccc3c(O)c(NC(=O)c4ccc(O)c(CC=C(C)C)c4)c(=O)oc3c2C)OC1(C)C
- IC50 (second compound 0.0316 µM): > 1000 nM
- IC50 (second compound 0.1 µM): > 1000 nM
- IC50 (second compound 0.316 µM): > 1000 nM
- IC50 (second compound 1 µM): > 1000 nM
- IC50 (second compound 3.16 µM): > 1000 nM
- IC50 (second compound 10 µM): > 1000 nM
- viability, T/C (second compound 0.0316 µM, first compound 0.00316 µM): 89.1%
- viability, T/C (second compound 0.0316 µM, first compound 0.01 µM): 99.6%
- viability, T/C [1]: 99.6%
- viability, T/C [2]: 112%
- viability, T/C [3]: 95.1%
- viability, T/C [4]: 74.4%
- viability, T/C (second compound 0.1 µM, first compound 0.00316 µM): 116%
- viability, T/C (second compound 0.1 µM, first compound 0.01 µM): 97.7%
- viability, T/C [7]: 127%
- viability, T/C [8]: 122%
- viability, T/C [9]: 87.5%
- viability, T/C [10]: 64.5%
- viability, T/C (second compound 0.316 µM, first compound 0.00316 µM): 105%
- viability, T/C (second compound 0.316 µM, first compound 0.01 µM): 99%
- viability, T/C [13]: 101%
- viability, T/C [14]: 98.6%
- viability, T/C [15]: 115%
- viability, T/C [16]: 60.5%
- viability, T/C (second compound 1 µM, first compound 0.00316 µM): 111%
- viability, T/C (second compound 1 µM, first compound 0.01 µM): 96.2%
- viability, T/C [19]: 96.4%
- viability, T/C [20]: 102%
- viability, T/C [21]: 97.9%
- viability, T/C [22]: 78.2%
- viability, T/C (second compound 3.16 µM, first compound 0.00316 µM): 112%
- viability, T/C (second compound 3.16 µM, first compound 0.01 µM): 103%
- viability, T/C [25]: 94.9%
- viability, T/C [26]: 107%
- viability, T/C [27]: 95.3%
- viability, T/C [28]: 69.6%
- viability, T/C (second compound 10 µM, first compound 0.00316 µM): 104%
- viability, T/C (second compound 10 µM, first compound 0.01 µM): 121%
- viability, T/C [31]: 115%
- viability, T/C [32]: 119%
- viability, T/C [33]: 95.2%
- viability, T/C [34]: 68.9%

SMILES: CCCS(=O)(=O)Nc1ccc(F)c(C(=O)c2c[nH]c3ncc(-c4ccc(Cl)cc4)cc23)c1F + COC1C(OC(N)=O)C(O)C(Oc2ccc3c(O)c(NC(=O)c4ccc(O)c(CC=C(C)C)c4)c(=O)oc3c2C)OC1(C)C
- IC50 (second compound 0.0316 µM): > 10000 nM
- IC50 (second compound 0.1 µM): > 10000 nM
- IC50 (second compound 0.316 µM): > 10000 nM
- IC50 (second compound 1 µM): > 10000 nM
- IC50 (second compound 3.16 µM): > 10000 nM
- IC50 (second compound 10 µM): > 10000 nM
- viability, T/C [1]: 116%
- viability, T/C [2]: 94.3%
- viability, T/C [3]: 107%
- viability, T/C [4]: 136%
- viability, T/C [5]: 107%
- viability, T/C [6]: 69.6%
- viability, T/C [7]: 111%
- viability, T/C [8]: 97.4%
- viability, T/C [9]: 118%
- viability, T/C [10]: 105%
- viability, T/C [11]: 123%
- viability, T/C [12]: 63.8%
- viability, T/C [13]: 93.6%
- viability, T/C [14]: 99.2%
- viability, T/C [15]: 120%
- viability, T/C [16]: 117%
- viability, T/C [17]: 121%
- viability, T/C [18]: 68.8%
- viability, T/C [19]: 94%
- viability, T/C [20]: 98.4%
- viability, T/C [21]: 99.2%
- viability, T/C [22]: 107%
- viability, T/C [23]: 118%
- viability, T/C [24]: 67.5%
- viability, T/C [25]: 108%
- viability, T/C [26]: 113%
- viability, T/C [27]: 116%
- viability, T/C [28]: 126%
- viability, T/C [29]: 124%
- viability, T/C [30]: 82.8%
- viability, T/C [31]: 106%
- viability, T/C [32]: 112%
- viability, T/C [33]: 110%
- viability, T/C [34]: 118%
- viability, T/C [35]: 118%
- viability, T/C [36]: 83.4%
